Measured values published in patent US20220306630A1, “AGONISTS OF ROR GAMMAt” (BRISTOL-MYERS SQUIBB COMPANY, priority 2019, published 2022).

Biological target: T1, RORgT (Homo sapiens, UniProt P51449)
T1 construct: Gal4 (fusion partner); expressed in transfected cells; host or cells: engineered Jurkat cells (Jurkat pEx/Gal/hRORγ CLBD/HYG pG5luc/blast)
T1 sequence (P51449 267-516): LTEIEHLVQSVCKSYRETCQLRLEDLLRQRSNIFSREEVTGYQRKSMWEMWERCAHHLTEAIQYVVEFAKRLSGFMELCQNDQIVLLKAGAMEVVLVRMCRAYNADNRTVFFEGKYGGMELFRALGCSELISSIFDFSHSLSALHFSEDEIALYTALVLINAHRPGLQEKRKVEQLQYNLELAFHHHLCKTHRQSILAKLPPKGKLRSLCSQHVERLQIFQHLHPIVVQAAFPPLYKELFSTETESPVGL
Assay: RORgT Gal4 Luciferase Reporter Gene Assay
Format: cell-based
Settings: engineered Jurkat cells overexpressing RORgT (LBD or full length) with Gal4 Luc reporter; 18 hours at 37° C.; 40 μM to 0.67 nM; read-out: RORg_GAL4 EC50
Procedure, shortened: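 Cells exposed to compound 18 hours at 37° C, then lysed for luciferase luminescence. Inhibition of constitutive activity expressed as percent reduction of signal window relative to a control compound.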

EC50 [nM] | SMILES
187 | CC(C)c1cc(F)cc(Oc2c(Cl)ccc(C(=O)NCc3cccc(S(C)(=O)=O)c3)c2Cl)c1 [Example 139]
9.3 | CC(C)c1cc(F)cc(Oc2c(Cl)ccc(C(=O)NC(C)c3ccc(S(C)(=O)=O)cc3)c2Cl)c1 (centres unmarked) [Example 140]
182 | COc1ncc(Oc2c(Cl)ccc(NC(=O)Cc3cccc(S(C)(=O)=O)c3)c2Cl)cc1C(C)C [Example 141]
71 | CC(C)c1cc(F)cc(Oc2c(Cl)ccc(C(=O)NC(C)c3ccc(S(C)(=O)=O)cc3)c2Cl)c1 (centres unmarked) [Example 142]
11.5 | COc1ncc(Oc2c(Cl)ccc(C(=O)NC(C)c3ccc(S(C)(=O)=O)cc3)c2Cl)cc1C(C)C (centres unmarked) [Example 143]
6.6 | COc1ncc(Oc2c(Cl)ccc(CNC(=O)C3CCN(S(C)(=O)=O)CC3)c2Cl)cc1C(C)C [Example 144]
8.5 | COc1ncc(Oc2c(Cl)ccc(CNC(=O)c3ccc(S(C)(=O)=O)cc3)c2Cl)cc1C(C)C [Example 145]
28 | COc1ncc(Oc2c(Cl)ccc(CNC(=O)c3ccc(S(N)(=O)=O)cc3)c2Cl)cc1C(C)C [Example 146]
9.6 | COc1ncc(Oc2c(Cl)ccc(CNC(=O)C3CCN(S(N)(=O)=O)CC3)c2Cl)cc1C(C)C [Example 147]
4 | CC(C)c1cc(F)cc(Oc2c(Cl)ccc(CNC(=O)C3CCN(S(C)(=O)=O)CC3)c2Cl)c1 [Example 148]
15 | CC(C)c1cc(F)cc(Oc2c(Cl)ccc(CNC(=O)c3ccc(S(C)(=O)=O)cc3)c2Cl)c1 [Example 149]
8.2 | CC(C)c1cc(F)cc(Oc2c(Cl)ccc(CNC(=O)c3ccc(S(N)(=O)=O)cc3)c2Cl)c1 [Example 150]
9.9 | CC(C)c1cc(F)cc(Oc2c(Cl)ccc(CNC(=O)C3CCN(S(N)(=O)=O)CC3)c2Cl)c1 [Example 151]
2.5 | COc1ncc(Oc2c(Cl)ccc(C(=O)NCc3ccc(S(C)(=O)=O)cc3)c2Cl)cc1C(C)(C)F [Example 152]
195 | COc1ncc(Oc2c(Cl)ccc(C(=O)NCC3CCN(S(C)(=O)=O)CC3)c2Cl)cc1C(C)(C)F [Example 153]
6.6 | COc1ncc(Oc2c(Cl)ccc(C(=O)NCc3ccc(S(N)(=O)=O)cc3)c2Cl)cc1C(C)(C)F [Example 154]
4750 | COc1ccc(Oc2c(Cl)cc(C(=O)NCc3cnc(C)cn3)cc2Cl)cc1C(C)C [Example 155]
1930 | COc1ccc(Oc2c(Cl)cc(C(=O)NCc3ccc(S(N)(=O)=O)cc3)cc2Cl)cc1C(C)C [Example 156]
939 | CCS(=O)(=O)c1ccccc1CNC(=O)c1cc(Cl)c(Oc2ccc(OC)c(C(C)C)c2)c(Cl)c1 [Example 157]
499 | COc1ccc(Oc2c(Cl)cc(C(=O)NCc3ccc(S(C)(=O)=O)cc3)cc2Cl)cc1C(C)C [Example 158]
377 | CCS(=O)(=O)N[C@@H]1CCN(CC(=O)Nc2cc(Cl)c(Oc3ccc(OC)c(C(C)C)c3)c(Cl)c2)C1 [Example 159]
325 | COc1ccc(Oc2c(Cl)cc(NC(=O)CN3CC[C@@H](NS(C)(=O)=O)C3)cc2Cl)cc1C(C)C [Example 160]
2330 | COc1ccc(Oc2c(Cl)cc(NC(=O)CN3CC[C@@H](NS(=O)(=O)C4CC4)C3)cc2Cl)cc1C(C)C [Example 161]
220 | CCS(=O)(=O)NC1CN(CC(=O)Nc2cc(Cl)c(Oc3ccc(OC)c(C(C)C)c3)c(Cl)c2)C1 [Example 162]

EC50 [nM] | SMILES
340 | COc1ccc(Oc2c(Cl)cc(NC(=O)CN3CC(NS(C)(=O)=O)C3)cc2Cl)cc1C(C)C [Example 163]
80 | CCS(=O)(=O)N[C@H]1CCN(CC(=O)Nc2cc(Cl)c(Oc3ccc(OC)c(C(C)C)c3)c(Cl)c2)C1 [Example 164]
182 | COc1ccc(Oc2c(Cl)cc(NC(=O)CN3CC[C@H](NS(C)(=O)=O)C3)cc2Cl)cc1C(C)C [Example 165]
424 | COc1ccc(Oc2c(Cl)cc(NC(=O)CN3CCC[C@@H](NS(=O)(=O)C4CC4)C3)cc2Cl)cc1C(C)C [Example 166]
245 | CCS(=O)(=O)N[C@@H]1CCCN(CC(=O)Nc2cc(Cl)c(Oc3ccc(OC)c(C(C)C)c3)c(Cl)c2)C1 [Example 167]
270 | COc1ccc(Oc2c(Cl)cc(NC(=O)CN3CCC[C@H](NS(C)(=O)=O)C3)cc2Cl)cc1C(C)C [Example 168]
93 | COc1ccc(Oc2c(Cl)cc(NC(=O)CN3CCC(NS(C)(=O)=O)CC3)cc2Cl)cc1C(C)C [Example 169]
370 | COc1ccc(Oc2c(Cl)cc(NC(=O)CN3CC[C@H](NS(=O)(=O)C4CC4)C3)cc2Cl)cc1C(C)C [Example 170]
2590 | COc1ccc(Oc2c(Cl)cc(NC(=O)CN3CCC[C@@H](NS(C)(=O)=O)C3)cc2Cl)cc1C(C)C [Example 171]
49 | CCS(=O)(=O)N[C@H]1CCCN(CC(=O)Nc2cc(Cl)c(Oc3ccc(OC)c(C(C)C)c3)c(Cl)c2)C1 [Example 172]
265 | CCS(=O)(=O)NC1CCN(CC(=O)Nc2cc(Cl)c(Oc3ccc(OC)c(C(C)C)c3)c(Cl)c2)CC1 [Example 173]
286 | COc1ccc(Oc2c(Cl)cc(NC(=O)CN3CC(NS(=O)(=O)C4CC4)C3)cc2Cl)cc1C(C)C [Example 174]
345 | COc1ccc(Oc2c(Cl)ccc(CNC(=O)CC3CCN(C(=O)C(F)(F)F)CC3)c2Cl)cc1C(C)C [Example 175]
83 | COc1ccc(Oc2c(Cl)ccc(C(=O)N3CCC(c4ccccc4)CC3)c2Cl)cc1C(C)C [Example 176]
336 | COc1ccc(Oc2c(Cl)ccc(C(=O)NCCc3nc4ccccc4s3)c2Cl)cc1C(C)C [Example 178]
1130 | COc1ccc(Oc2c(Cl)ccc(C(=O)N3CCc4ccccc4C3)c2Cl)cc1C(C)C [Example 179]
325 | COc1ccc(Oc2c(Cl)ccc(C(=O)N3CCC(O)(c4ccccc4)CC3)c2Cl)cc1C(C)C [Example 180]
214 | COc1ccc(Oc2c(Cl)ccc(C(=O)n3nc(C)cc3CN)c2Cl)cc1C(C)C [Example 181]
355 | COCCN(C)C(=O)c1ccc(Cl)c(Oc2ccc(OC)c(C(C)C)c2)c1Cl [Example 182]
284 | COCCNC(=O)c1ccc(Cl)c(Oc2ccc(OC)c(C(C)C)c2)c1Cl [Example 183]
246 | COc1ccc(Oc2c(Cl)ccc(C(=O)N3CCCCC3)c2Cl)cc1C(C)C [Example 184]
28 | CCS(=O)(=O)N1CCN(CC(=O)NCc2ccc(Cl)c(Oc3ccc(OC)c(C(C)C)c3)c2Cl)CC1 [Example 185]
90 | COc1ccc(Oc2c(Cl)ccc(CNC(=O)CN3CCN(S(C)(=O)=O)CC3)c2Cl)cc1C(C)C [Example 186]
522 | CCS(=O)(=O)N1CCC(CC(=O)NCc2ccc(Cl)c(Oc3ccc(OC)c(C(C)C)c3)c2Cl)CC1 [Example 187]

EC50 [nM] | SMILES
383 | COc1ccc(Oc2c(Cl)ccc(CNC(=O)COC3CCN(S(C)(=O)=O)CC3)c2Cl)cc1C(C)C [Example 188]
40 | COc1ccc(Oc2c(Cl)ccc(C(=O)N3CCC(O)CC3)c2Cl)cc1C(C)C [Example 189]
989 | CCS(=O)(=O)N1CC2(CN(CC(=O)Nc3cc(Cl)c(Oc4ccc(OC)c(C(C)C)c4)c(Cl)c3)C2)C1 [Example 190]
128 | COc1ccc(Oc2c(Cl)ccc(C(=O)N3CCC(c4ccc(Cl)cc4)CC3)c2Cl)cc1C(C)C [Example 191]
89 | COc1ccc(Oc2c(Cl)ccc(C(=O)N3CCC(N(C)C)CC3)c2Cl)cc1C(C)C [Example 192]
866 | COc1ccc(Oc2c(Cl)ccc(C(=O)NC3CCN(Cc4ccccc4)C3)c2Cl)cc1C(C)C (centres unmarked) [Example 193]
6460 | COc1ccc(Oc2c(Cl)ccc(C(=O)NCc3ccccn3)c2Cl)cc1C(C)C [Example 194]
616 | COc1ccc(Oc2c(Cl)ccc(C(=O)NCc3ccc(N(C)C)cc3)c2Cl)cc1C(C)C [Example 195]
200 | COc1ccc(Oc2c(Cl)ccc(C(=O)N3CCN(C)CC3)c2Cl)cc1C(C)C [Example 196]
860 | COc1ccc(Oc2c(Cl)ccc(C(=O)NC3CCC(O)CC3)c2Cl)cc1C(C)C (centres unmarked) [Example 197]
872 | COc1ccc(Oc2c(Cl)ccc(C(=O)NCc3cccc(Cl)c3)c2Cl)cc1C(C)C [Example 198]
3890 | COc1ccc(Oc2c(Cl)ccc(C(=O)NCCc3ccccc3Cl)c2Cl)cc1C(C)C [Example 199]
330 | COc1ccc(Oc2c(Cl)ccc(C(=O)NCc3ccccc3Cl)c2Cl)cc1C(C)C [Example 200]
511 | COc1ccc(Oc2c(Cl)ccc(C(=O)NCC#N)c2Cl)cc1C(C)C [Example 201]
4490 | COc1ccc(Oc2c(Cl)ccc(C(=O)Nc3cccnc3)c2Cl)cc1C(C)C [Example 202]
129 | COc1ccc(Oc2c(Cl)ccc(C(=O)N3CCN(C(C)=O)CC3)c2Cl)cc1C(C)C [Example 203]
40 | COc1ccc(Oc2c(Cl)ccc(C(=O)NC(C)c3cn(C)nc3C)c2Cl)cc1C(C)C (centres unmarked) [Example 204]
564 | COc1ccc(Oc2c(Cl)ccc(C(=O)NCc3cc(C)no3)c2Cl)cc1C(C)C [Example 205]
100 | COc1ccc(Oc2c(Cl)ccc(C(=O)NCc3cnc(C)cn3)c2Cl)cc1C(C)C [Example 206]
63 | COc1ccc(Oc2c(Cl)ccc(C(=O)Nc3cccc4cnccc34)c2Cl)cc1C(C)C [Example 207]
508 | COc1ccc(Oc2c(Cl)ccc(C(=O)NCCO)c2Cl)cc1C(C)C [Example 208]
659 | CCCCNC(=O)c1ccc(Cl)c(Oc2ccc(OC)c(C(C)C)c2)c1Cl [Example 209]
105 | COc1ccc(Oc2c(Cl)ccc(C(=O)N3CCCC3)c2Cl)cc1C(C)C [Example 210]
